Laboratory results reported in US20050090457A1, “Method of treating mammals with genistein and/or genistein analogues” (N.V. NUTRICIA, priority 2002, published 2005).
Where two headings read alike, the source gives them in different places. Each block holds one compound with its values, some of them ahead of it.

Experiments:
[1] = biological target: T1, PPARγ (Mus musculus, UniProt P37238); conditions: cited from earlier work; for PPARγ binding and activation: may act as allosteric effectors
T1 construct: host or cells: mouse macrophages
T1 sequence (P37238 1-505): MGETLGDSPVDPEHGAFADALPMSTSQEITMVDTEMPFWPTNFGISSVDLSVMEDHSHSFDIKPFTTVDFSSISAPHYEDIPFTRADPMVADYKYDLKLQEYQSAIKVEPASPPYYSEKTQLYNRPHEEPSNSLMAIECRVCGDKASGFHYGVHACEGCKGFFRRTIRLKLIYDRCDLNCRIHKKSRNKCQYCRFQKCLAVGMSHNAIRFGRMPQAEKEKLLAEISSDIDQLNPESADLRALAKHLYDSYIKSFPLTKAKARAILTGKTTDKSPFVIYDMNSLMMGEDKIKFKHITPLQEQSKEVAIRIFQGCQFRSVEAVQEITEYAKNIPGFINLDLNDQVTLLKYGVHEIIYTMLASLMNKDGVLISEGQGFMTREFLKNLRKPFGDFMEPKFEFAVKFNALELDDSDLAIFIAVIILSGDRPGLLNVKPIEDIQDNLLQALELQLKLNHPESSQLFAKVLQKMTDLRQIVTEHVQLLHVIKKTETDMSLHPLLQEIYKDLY

[2] = system: 3T3-L1; conditions: cited from earlier work; for proliferation of preadipocytes: time- and dose-dependent
[3] = system: estrogenic receptor responsive element (ERE); assay: ERE luciferase reporter in transiently transfected KS483 cells; assay type: cell-based
Description: KS483 cell were transiently transfected with a luciferase reporter construct containing two copies of a consensus estrogenic receptor responsive element (ERE) inserted in front of TATA or five copies of a consensus PPARy responsive element (PPRE) inserted in front of TATA or empty TATA-luciferase reporter along with expression plasmids encoding human PPARγ2. […] Similarly, a dose-related increase of PPRE reporter activity was found in the range of 1 μM to 50 μM.
It is also possible that an activation of PPARγ down regulated transcriptional activity of estrogen, i.e. there is cross-talk between ER's and PPARγ. […] Ligand concentration thus plays a crucial role in determining the degree of activation of ER's and PPARγ.

[4] = system: ovariectomised, lactating rats; conditions: cited from earlier work
[5] = system: p42 and p44 MAPK; assay: Western blot of p42 and p44 MAPK activity; assay type: cell-based
Description: It has been shown that phosphorylation of PPARγ by p42 and p44 mitogen activated protein kinase (MAPK) regulates PPARγ activity. We therefore performed western blot to test whether genistein at the micromolar concentrations inhibit p42 and p44 MAPK activity. […] An inhibition of p42 and p44 vMAPK activity is likely to potentiate PPARγ activity.

[6] = biological target: T2, PPARγ (Homo sapiens, UniProt P37231); assay: Membrane-bound PPARγ binding assay
T2 sequence (P37231 1-505): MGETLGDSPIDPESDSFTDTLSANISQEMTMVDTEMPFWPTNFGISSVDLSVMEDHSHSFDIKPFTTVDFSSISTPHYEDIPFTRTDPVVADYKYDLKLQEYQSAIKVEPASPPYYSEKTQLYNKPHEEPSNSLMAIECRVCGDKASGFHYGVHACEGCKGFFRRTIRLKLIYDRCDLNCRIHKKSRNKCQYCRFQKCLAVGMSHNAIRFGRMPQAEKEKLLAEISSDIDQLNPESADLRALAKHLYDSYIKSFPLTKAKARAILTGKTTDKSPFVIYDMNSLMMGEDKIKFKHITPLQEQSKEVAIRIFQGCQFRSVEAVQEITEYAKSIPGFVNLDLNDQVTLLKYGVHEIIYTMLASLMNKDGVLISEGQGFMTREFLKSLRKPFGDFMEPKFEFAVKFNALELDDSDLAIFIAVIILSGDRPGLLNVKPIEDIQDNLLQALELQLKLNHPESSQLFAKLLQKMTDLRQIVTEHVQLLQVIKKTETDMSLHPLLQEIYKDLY
Description: The dose-related increase of PPRE reporter activity by genistein was also observed when a luciferase reporter construct containing three copies of a consensus PPRE inserted in front of a minimal thymidine kinase promoter. To determine whether genistein activates PPARγ through direct interaction with this receptor, we performed membrane-bound PPARγ binding assay.

[7] = system: osteogenesis and adipogenesis; assay: In vitro model, summary: osteogenesis stimulated and adipogenesis inhibited; assay type: cell-based; conditions: low plasma concentrations, ER mediated
Description: (§1) Despite the large number of prior art publications that deal with the favourable effect of genistein on e.g. osteogenesis and/or adipogenesis, it has not been recognized before that it is crucial to avoid that plasma genistein levels reach a level that is sufficient to activate the PPARγ receptor in order to prevent inhibition of osteoblast activity and differentiation and to prevent stimulation of adipogenesis. As a matter of fact some of these publications recommend genistein dosages and plasma levels that according to the inventors' findings will produce significant adverse results. The inventors have developed a highly reproducible and sensitive in vitro model that has allowed them to discover that the effect of genistein components on e.g. osteogenesis and adipogenesis is biphasic, i.e. at plasma genistein levels above about 0.02 μM estrogen receptors (ER's) may be activated, leading to stimulation of osteogenesis, whilst at plasma genistein levels above about 4 μM the PPARγ receptor is activated, which triggers adipogenesis. By maintaining the plasma genistein levels at a level where the estrogen receptors are continuously activated, whilst at the same time avoiding activation of the PPARγ receptor, disorders such as osteoporosis and obesity may effectively be treated. […] These effects are mediated through the ER's.

[8] = system: 3T3-L1 cels; conditions: cited from earlier work
[9] = dose 8 mg/kg body weight; cited from earlier work
[10] = biological target: T2, PPARγ; assay: In vitro model, summary: activation of and binding to PPARγ; assay type: cell-based; conditions: triggers adipogenesis
Description: as §1
At the same time the adipogenesis increases. […]

[11] = system: human bone marrow cultures; assay: Adipogenesis (adipocyte numbers) in human bone marrow cultures; assay type: cell-based
[12] = system: mouse bone marrow cell cultures; assay: Osteogenesis in mouse bone marrow cell cultures; assay type: cell-based
Description: (§2) Similar stimulatory and inhibitory effects of genistein on bone formation were also observed in mouse and human bone marrow cell cultures. Like in KS483 cells, the stimulatory effects on ALP activity and Ca deposition in mouse bone marrow cultures occurred at concentrations between 0.1 μM and 10 μM, whereas the inhibitory effects were also found at the concentrations of 25 μM or higher. In human bone marrow cell cultures, the stimulatory effects was found at 0.001 μM, whereas the inhibitory effects were observed above 4 μM.

[13] = biological target: T3, human PPARγ2 (Homo sapiens, UniProt P37231); assay: PPRE luciferase reporter in KS483 cells with human PPARγ2 expression plasmid; assay type: cell-based
T3 construct: expressed in transfected cells; host or cells: KS483 cells
T3 sequence (P37231 1-505): T2 sequence (P37231 1-505)
Description: KS483 cell were transiently transfected with a luciferase reporter construct containing two copies of a consensus estrogenic receptor responsive element (ERE) inserted in front of TATA or five copies of a consensus PPARy responsive element (PPRE) inserted in front of TATA or empty TATA-luciferase reporter along with expression plasmids encoding human PPARγ2.
To determine whether genistein activates PPARγ through direct interaction with this receptor, we performed membrane-bound PPARγ binding assay.

[14] = system: estrogen receptors (ER's); assay: In vitro model, summary: activation of estrogen receptors; assay type: cell-based; conditions: leads to stimulation of osteogenesis
[15] = cited from earlier work
[16] = system: mouse bone marrow cells; assay: Adipogenesis (adipocyte numbers) in mouse bone marrow cultures; assay type: cell-based
Description: (§3) These inhibitory and stimulatory effects of genistein on adipogenesis in KS483 cells were further confirmed by mRNA expression of the adipocyte markers, PPARγ2, adipocyte protein 2 (aP2) and lipoprotein lipase (LPL). Adipogenic responses of mouse bone marrow cells to different doses of genistein were obtained.

[17] = system: KS 483 cells; assay: Osteogenesis in KS 483 cells (ALP activity, nodule formation, Ca deposition, osteoblastic marker mRNA); assay type: cell-based
Description: KS 483 cells were continuously treated for 21 days with various concentrations of genistein from day one onwards. Genistein had clear biphasic effects on osteogenesis. The stimulatory effects of genistein on alkaline phosphatase (ALP) activity, nodule formation and Ca deposition were found in the range of 0.1 μM to 10 μM, with a maximal effect at 1 μM. In contrast, the inhibitory effects of genistein on ALP activity, nodule formation and Ca deposition occurred at concentrations of 25 μM or higher.

[18] = system: KS483 cells; assay: Adipogenesis (adipocyte numbers) in KS483 cells; assay type: cell-based; conditions: KS483 cells treated from day 1 onwards
Description: as §3

[19] = system: human bone marrow cell cultures; assay: Osteogenesis in human bone marrow cell cultures; assay type: cell-based
Description: as §2

[20] = 61.7 μmole genistein per kg bodyweight per day

SMILES: O=c1cc(-c2ccc(O)cc2)oc2cc(O)cc(O)c12 [apigenin]
PPARγ binding and activation [1]: able to bind and activate PPARγ

SMILES: O=C1C[C@@H](c2ccc(O)cc2)Oc2cc(O)cc(O)c21 [naringenin, reference compound]
proliferation of preadipocytes [2]: inhibit proliferation of preadipocytes

SMILES: O=c1c(-c2ccc(O)cc2)coc2cc(O)cc(O)c12 [genistein]
concentration at which ERE reporter activity reaches the maximal level ([3]; KS483 cells): 50 µM | effect of co-transfection of PPARγ2 on ERE reporter activity ([3]; KS483 cells exposed to the same concentrations of genistein): decreased ERE reporter activity | effect on uterine weight [4, 20]: negative impact on uterine weight | response on retention of bone mass [4, 20]: lower response | dosages with positive effect on the retention of bone mass ([4]; ovariectomised, lactating rats): 6.2-19.7 μmole genistein per kg bodyweight per day | concentration range of inhibition of p42 and p44 MAPK activity [5]: micromolar range | Ki [6]: 5.7 µM | plasma concentrations at which osteogenesis is stimulated and adipogenesis is inhibited [7]: 0.02 to 3 µM | D/M induced adipogenesis ([8]; 3.3 μM, lowest concentration tested): weak inhibitory influence | D/M induced adipogenesis ([8]; 100 μM): effectively abolishes adipogenic conversion | D/M induced adipogenesis ([8]; 10 and 33 μM): marked inhibition of adipogenesis | serum genistein [9]: ~10 µM | genistein level above which the PPARγ receptor is bound/activated [10]: above 4 μM | PPAR-γ expression ([2]; added to 2-day postconfluent preadipocytes at the induction of differentiation): inhibit PPAR-γ expression | proliferation of preadipocytes [2]: inhibit proliferation of preadipocytes | concentration with an increase in adipocyte numbers [11]: 10 µM | concentrations of inhibitory effects on bone formation [12]: ≥ 25 µM | concentration at which PPRE reporter activity reaches the maximal level ([13]; KS483 cells): 50 µM | effect of co-transfection of ERα on PPRE reporter activity ([13]; KS483 cells exposed to genistein): down regulation of PPRE reporter activity | PPARγ activity ([1]; concentration of 10 μM): not stimulate PPARγ activity | plasma genistein level above which estrogen receptors may be activated [14]: above 0.02 μM | plasma concentration of genistein ([15]; Japanese who consume high amounts of soy products): ~5 µM | plasma concentration of genistein ([15]; humans consuming diets without soy): less than 20 nM | concentrations with an increase in adipocyte numbers [16]: above 4 μM | concentration of maximal stimulatory effect on ALP activity, nodule formation and Ca deposition ([17]; KS 483 cells, 21 days): 1 µM | concentrations of inhibitory effects on ALP activity, nodule formation and Ca deposition ([17]; KS 483 cells, 21 days): ≥ 25 µM | bone formation by mRNA expression of Cbfal, osteocalcin and PTH/PTHrP receptor ([17]; genistein 1 μM): increase of bone formation | bone formation by mRNA expression of Cbfal, osteocalcin and PTH/PTHrP receptor ([17]; genistein 25 μM): decrease of bone formation | concentrations of increased adipocyte numbers [18]: ≥ 10 µM | concentration at which stimulatory effects on bone formation were found [19]: 0.001 µM | concentrations at which inhibitory effects on bone formation were observed [19]: above 4 μM

SMILES: O=c1c(O)c(-c2ccc(O)cc2)oc2cc(O)cc(O)c12 [kaempferol]
PPARγ binding and activation [1]: able to bind and activate PPARγ

Ki [6]: 4.2 µM
SMILES: CCCc1c(OCCCCc2nnn[nH]2)ccc(C(C)=O)c1O [LY 171883, reference compound]
